The text below walks through data of patent EP4385508A1, “FURAN FATTY ACIDS FOR ENHANCING MUSCLE MASS” (Centre de Coopération Internationale en Recherche …, priority 2022, dated 2024).

In assay [1] the test system is C57BL/6J mice. In words: High Fat and High Sucrose (HFHS) diet with FuFA-F2, quadriceps muscle mass. Type of assay: in vivo. The conditions noted are these: 12 weeks. As for the experimental part:
Forty six-weeks old male C57BL/6J mice (Charles River, L'Arbresle, France), weighing about 21 g, were housed (5 per cage) under conditions of constant temperature (20-22°C), humidity (45-50%) and a standard dark cycle (20.00-08.00 hours). The mice were randomized, according to their initial weight, into four groups of ten animals and fed for 12 weeks with one of the four following semi-purified diets: 1) control diet, 2) HFHS diet, 3) HFHS + FuFA-F2 (0.048%, 40mg/kg body weight/day), 4) HFHS + FuFA-F2 (0.127%, 105mg/kg body weight/day). In this example, "FuFA-F2" is the triacylglycerol form of FuFA-F2.
The control diet contains 5% lipids as a mixture of rapeseed oil, high oleic sunflower oil, sunflower oil and linseed oil (oil mixture of Carrefour), the high fat high sucrose (HFHS) diets contain 25% lipids (5% of a mixture of rapeseed oil, high oleic sunflower oil, sunflower oil and linseed oil and 20% of lard) and 30% sucrose. The detailed composition of the diets is given in Table 1 at the end of the present description. […]
Throughout the study, mice were given free access to food and tap water. Mice body weight was followed weekly and food consumption was determined every two days (during the week) or three days (the week-end). […]
Results were expressed as means ± SD. […]

Assay [2] relates to complex IV (cytochrome c oxidase). In words: Complex IV activity of C2C12 myotubes. It counts as cell-based. Particulars: Mus musculus, C2C12, 72 h, 3 days, change vs control, trend p<0.07. How it is done:
Mouse myoblasts of the C2C12 cell line (ATCC) were seeded at a plating density of 7000 cells/cm2 in 6-well plates. They were grown in DMEM high glucose (4.5g/l) supplemented with gentamycin (50 µg/mL), amphotericin (50 µg/mL), and fetal calf serum (10%). Terminal differentiation was induced at cell confluence by lowering the medium serum concentration (0.5%).
When indicated, FuFA-F2 was added to the culture medium at the indicated concentration. For the differentiation studies, FuFA-F2 was added at the confluence at the same time as the change in media condition. Three doses of FuFA-F2 were studied at a final concentration of 1, 10, or 50 µM. Human insulin was used at a concentration of 100 nM.
Mitochondrial respiratory complex activities were determined as previously described (Casas et al., 2008, PloS ONE, Vol. 3(6) : e2501). Citrate synthase (CS) activity was measured according to Srere (Srere et al., 1967, Science, Vol. 158(3803) : 936-937) by following the color formation of 5-thio-2-nitrobenzoic acid at 412 nm. The enzymatic activity of complex IV (cytochrome c oxidase) was measured according to Wharton and Tzagoloff (Wharton et al., 1967, Methods in Enzymology, Vol. 10, Edn Elsevier BV, Amsterdam, The Netherlands), a spectrophotometer following the oxidation of reduced cytochrome c at 550 nm, pH 7.4, and 37 °C. Cytochrome c was reduced with sodium dithionite. […]

As to `CCCCCc1cc(C)c(CCCCCCCCC(=O)O)o1` [FuFA-F2], the quadriceps muscle mass result in assay [1] (HFHS diet + FuFA-F2 (triacylglycerol form) at any dose (40 and 105mg/kg body weight/day), compared to HFHS alone) is recorded as “increased”; in assay [1] (highest dose 105mg/kg body weight/day by comparison to lowest dose 40mg/kg body weight/day, HFHS diet, triacylglycerol form), “significantly increased”. In assay [2], this molecule gave an activation at 10 µM of 60%.
